Results taken from US20180028480A1, “METHODS OF REDUCING OR PREVENTING OXIDATIVE MODIFICATION OF MEMBRANE POLYUNSATURATED FATTY ACIDS” (Amarin Pharmaceuticals Ireland Limited, priority 2015, published 2018).

What was measured:
[1] = Small angle x-ray diffraction of glucose-treated model membranes: structure and cholesterol domains (Example 4); settings: for effect on membrane structure compared to control: 0 hours, 1:30 drug-to-phospholipid mole ratio, glucose 200 mg/dL
Experimental: Multilamellar vesicles (MLVs) were prepared as binary mixtures of DLPC (1.0 or 2.5 mg total phospholipid per sample) and cholesterol at a fixed cholesterol-to-phospholipid (C/P) mole ratio of 0.6:1. Component lipids (in chloroform) were transferred to 13×100 mm borosilicate culture tubes and combined with vehicle (ethanol) or an equal volume of fatty acid, vitamin E, or ATM stock solutions, each adjusted to achieve desired treatment concentrations. Samples were shell-dried under nitrogen gas and placed under vacuum for 1 h to remove residual solvent. After desiccation, each sample was resuspended in 1.0 mL glucose-containing saline to yield final phospholipid concentrations of 1.0 or 2.5 mg/mL (for lipid peroxidation or x-ray diffraction analysis, respectively). Lipid suspensions were then vortexed for 3 min at ambient temperature to form MLVs.
The membrane structural effects of glucose and the various compounds examined in this study were measured at 0, 72, and 96 hour intervals. Membrane lipid vesicles were oriented for x-ray diffraction analysis as described by others (e.g., Herbette et al., Biophys. J., vol. 20(2), pages 245-272 (1977)). Briefly, a 100 μL aliquot (containing 250 μg MLV) was aspirated from each sample and transferred to a Lucite® sedimentation cell fitted with an aluminum foil substrate upon which a given sample could be collected by centrifugation. Samples were then loaded into a Sorvall AH-629 swinging bucket rotor (DuPont Corp., Wilmington, Del.) and centrifuged at 35,000 g, 5° C., for 90 min.
After centrifugal orientation, sample supernatants were aspirated and aluminum foil substrates, each supporting a single membrane pellet, were removed from the sedimentation cells. […]
The d-space for any given membrane multibilayer is a measurement of the unit cell periodicity of the membrane lipid bilayer (e.g., the distance from the center of one lipid bilayer to the next including surface hydration), and is calculated from Bragg's Law, hλ=2 d sin θ, where h is the diffraction order, λ is the wavelength of the x-ray radiation (1.54 Å), d is the membrane lipid bilayer unit cell periodicity, and θ is the Bragg angle equal to one-half the angle between the incident beam and scattered beam.
The presence of cholesterol domains in a given membrane sample results in the production of distinct Bragg (diffraction) peaks having singular periodicity values of 34 and 17 Å (typically referred to as first- and second-order cholesterol domain peaks). Under the specific temperature and relative humidity conditions established for these experiments, the second-order, 17 Å cholesterol domain peak was well-delineated from other, neighboring cholesterol and phospholipid diffraction peaks and was thus used to quantitate relative cholesterol domain peak intensity. […]

unfractionated LDL = assay: Copper-induced oxidation of unfractionated LDL, TBARS (Example 6); type: biochemical, human; settings: 1.0 μM to 10.0 μM
Experimental: All test compounds were further diluted in ethanol or aqueous buffer as needed. Venous blood was collected from healthy volunteers into vacutainer tubes containing sodium EDTA. […] Plasma and lipoprotein fractions were maintained at 4° C. and protected from excessive exposure to light. Prior to oxidation experiments, EDTA was removed from the lipoprotein fraction using PD-10 desalting columns (GE Healthcare, Piscataway N.J.). After equilibration of the column with phosphate buffered saline (PBS), 2.5 mL of the lipoprotein fraction was loaded on the column and the flow-through discarded. The lipoprotein was then eluted with 3 mL of PBS. The LDL fractions were further diluted with PBS to obtain a 100 μg/mL apoB100 concentration. […] Sample TBARS concentrations were determined spectrophotometrically by measuring sample absorbances against a standard curve derived from the hydrolysis of 1,1,3,3-tetramethoxypropane. […] Differences between groups were analyzed using the two-tailed, Student's t-test (for comparisons between only two groups) or ANOVA followed by Dunnett or Student-Newman-Keuls multiple comparisons post-hoc analysis (for comparisons between three or more groups).

SMILES	effect on membrane structure compared to control [1]	LDL oxidation (unfractionated LDL)	cholesterol domain peaks ([1]; 96 hours of oxidative conditions)	effect on cholesterol domain formation (cholesterol domain peak intensity) compared to control ([1]; any experimental time point (FIG. 5))
CC/C=C\C/C=C\C/C=C\C/C=C\C/C=C\CCCC(=O)O [EPA, cis-5,8,11,14,17-Eicosapentaenoic acid]	no appreciable effect on membrane structure	generally inhibit LDL oxidation		
Cc1c(C)c2c(c(C)c1O)CC[C@@](C)(CCC[C@H](C)CCC[C@H](C)CCCC(C)C)O2 [vitamin E, α-tocopherol, reference compound]	no appreciable effect on membrane structure	did not inhibit LDL oxidation at any concentration	disproportionately greater	no significant effect on cholesterol domain formation
